Some results are limits rather than exact numbers.

Drawing on patent US20210214364A1, “sGC STIMULATORS” (Cyclerion Therapeutics, Inc., priority 2013, published 2021), this text covers EC50 for 44 compounds.

For this assay, the target named is T1, soluble guanylate cyclase (sGC) endogenously expressed in HEK293 cells (Homo sapiens, UniProt Q02108+Q02153).
T1 construct: endogenously expressing soluble guanylate cyclase (sGC); endogenous in cells; host or cells: HEK293
T1 sequence (Q02153 1-619): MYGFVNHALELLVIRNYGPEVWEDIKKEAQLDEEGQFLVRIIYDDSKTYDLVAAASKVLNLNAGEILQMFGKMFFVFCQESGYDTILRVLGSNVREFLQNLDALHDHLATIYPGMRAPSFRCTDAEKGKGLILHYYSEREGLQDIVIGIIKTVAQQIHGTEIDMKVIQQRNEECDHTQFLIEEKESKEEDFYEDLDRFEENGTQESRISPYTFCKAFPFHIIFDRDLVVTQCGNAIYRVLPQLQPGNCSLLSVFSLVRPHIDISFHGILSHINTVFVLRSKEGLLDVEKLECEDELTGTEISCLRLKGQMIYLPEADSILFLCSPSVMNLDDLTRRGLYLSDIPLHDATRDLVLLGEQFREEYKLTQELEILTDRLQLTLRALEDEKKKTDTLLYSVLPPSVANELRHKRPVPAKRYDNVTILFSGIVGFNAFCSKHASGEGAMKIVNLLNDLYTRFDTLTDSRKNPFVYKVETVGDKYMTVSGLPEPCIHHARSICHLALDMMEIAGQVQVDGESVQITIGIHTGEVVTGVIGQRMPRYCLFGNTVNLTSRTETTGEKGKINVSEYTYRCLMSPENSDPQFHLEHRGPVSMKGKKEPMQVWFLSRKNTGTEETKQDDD
T1 sequence (Q02108 1-690): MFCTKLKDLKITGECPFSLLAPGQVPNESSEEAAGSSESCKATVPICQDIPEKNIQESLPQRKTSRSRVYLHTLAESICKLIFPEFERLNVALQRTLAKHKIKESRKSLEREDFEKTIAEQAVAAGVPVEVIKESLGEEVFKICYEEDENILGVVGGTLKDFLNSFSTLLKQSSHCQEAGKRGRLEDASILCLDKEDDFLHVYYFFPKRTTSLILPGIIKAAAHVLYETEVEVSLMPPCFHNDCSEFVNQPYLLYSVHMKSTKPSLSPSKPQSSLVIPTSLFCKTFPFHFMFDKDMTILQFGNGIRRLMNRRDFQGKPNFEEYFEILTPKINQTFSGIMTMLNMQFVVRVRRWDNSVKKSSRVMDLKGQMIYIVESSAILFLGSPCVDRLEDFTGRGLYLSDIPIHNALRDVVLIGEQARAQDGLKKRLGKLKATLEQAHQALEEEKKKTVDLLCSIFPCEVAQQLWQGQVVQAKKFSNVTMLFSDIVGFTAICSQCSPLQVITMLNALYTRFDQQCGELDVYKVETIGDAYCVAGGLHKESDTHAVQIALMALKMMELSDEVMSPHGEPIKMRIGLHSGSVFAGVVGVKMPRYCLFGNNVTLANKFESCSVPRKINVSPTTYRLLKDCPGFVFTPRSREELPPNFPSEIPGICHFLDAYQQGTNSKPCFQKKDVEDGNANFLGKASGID
Put plainly: sGC-HEK-cGMP assay with LC/MS detection (whole cell). In kind it is cell-based. Particulars: 10 μM DETA-NONOate, 20 min, concentration eliciting 50% of high control response (30 μM Compound Y), read-out: sGC_HEK_LC MS EC50 Abs. The protocol:
Example 2: Biological Activity Measurement by the sGC-HEK-cGMP Assay, with LC/MS Detection
Human embryonic kidney cells (HEK293), endogenously expressing soluble guanylate cyclase (sGC), were used to evaluate the activity of test compounds. Compounds stimulating the sGC enzyme should cause an increase in the intracellular concentration of cGMP. HEK 293 cells were seeded in Dulbecco's Modification of Eagle's Medium supplemented with fetal bovine serum (10% final) and penicillin (100 U/mL)/streptomycin (100 μg/mL) in a 50 μL volume at a density of 1.5×10^4 cells/well in a poly-D-lysine coated 384 well flat bottom plate. Cells were incubated overnight at 37° C. in a humidified chamber with 5% CO2. Medium was aspirated and cells were washed with 1× Hank's Buffered Saline Salt Solution (50 μL). Cells were then incubated for 15 minutes at 37° C. with 50 μL of a 0.5 mM 3-isobutyl-1-methylxanthine (IBMX) solution. Test article and Diethylenetriamine NONOate (DETA-NONOate) solutions (x […] concentration for test article solution and 10 μM concentration for DETA-NONOate solution; wherein x is one of the following concentrations);
were then added to the assay mixture and the resulting mixture incubated at 37° C. for 20 minutes. After the 20 minute incubation, the assay mixture was aspirated and 10% acetic acid containing 150 ng/mL+3-cGMP (internal standard for LCMS) (50 μL) was added to the cells. The plate was incubated at 4° C. for 30 minutes in the acetic acid solution to stop the reaction and lyse the cells. The plates were then centrifuged at 1,000 g for 3 minutes at 4° C. and the supernatant transferred to a clean reaction plate for LCMS analysis.
cGMP concentrations were determined from each sample using the LCMS conditions below (Table 2) and calculated standard curve. The standard curve was prepared in 10% acetic acid with 150 ng/mL+3cGMP (isotopically labelled cGMP with a weight 3 units higher than wild type) with the following final concentrations of cGMP in ng/mL: 1, 5, 10, 50, 100, 250, 500, 1000, 2000.
Data were normalized to a high control using the following equation: 100*(Sample−Low Control)/(High Control−Low Control), where the low control is the average of 16 samples treated with 1% DMSO, and the high control is the average of 16 samples treated with 30 μM of Compound Y depicted below. Data were fit using a 4-parameter fit (log(agonist) vs. response variable slope) using GraphPad Prism Software v.5. n=2 for all compounds. The Absolute EC50 was interpolated from the curve fit and is defined as the concentration at which a given compound elicits 50% of the high control response. Compounds failing to elicit a minimum response of 50% are reported as >30 μM. For compounds run in duplicate or n higher than 2, the result herein given is the geometric mean of the several results obtained.
As to `COc1cc(-c2nc(N)c3c(n2)NC(=O)C3(C)C(N)=O)nn1Cc1ccccc1F` (centres unmarked) [Compound I-2], the EC50 (usually the concentration that produces a half-maximal response) is 101 to 1000 nM.
Next, `O=c1[nH]c(-c2cc(OC(F)F)n(Cc3ccccc3F)n2)ncc1F` [Compound I-4]: ≥ 1000 nM; `COc1cc(-c2ncc(F)c(=O)[nH]2)nn1Cc1ccccc1F` [Compound I-5]: ≥ 1000 nM.
To `COc1cc(-c2nccc(N)n2)nn1Cc1ccccc1F` [Compound I-6] belongs ≥ 1000 nM.
Next, `COc1cc(-c2nc(N)c3c(n2)NC(=O)C3(C)C(N)=O)nn1CCC(F)(F)F` (centres unmarked) [Compound I-7]: ≥ 1000 nM; `CCOC(=O)C1(C)C(=O)Nc2nc(-c3cc(OC(C)C)n(Cc4ccccc4F)n3)nc(N)c21` (centres unmarked) [Compound I-8]: ≥ 1000 nM; `COc1cc(-c2ncc(F)c(NCC(=O)O)n2)nn1Cc1ccccc1F` [Compound I-9]: ≥ 1000 nM.
As for `CC1(C(N)=O)C(=O)Nc2nc(-c3nn(Cc4ccccc4F)c(=O)[nH]3)nc(N)c21` (centres unmarked) [Compound I-10], the EC50 was ≥ 1000 nM.
Next, `COc1cc(-c2ncc(F)c(NCC(N)=O)n2)nn1Cc1ccccc1F` [Compound I-11]: ≥ 1000 nM.
Next, `COc1cc(-c2ncc(F)c(N(C)C)n2)nn1Cc1ccccc1F` [Compound I-12]: ≥ 1000 nM; `COc1cc(-c2ncc(F)c(NCCO)n2)nn1Cc1ccccc1F` [Compound I-13]: ≥ 1000 nM.
In the case of `CCOC(=O)C1(C)C(=O)Nc2nc(-c3cc(OC)n(CCC(F)(F)F)n3)nc(N)c21` (centres unmarked) [Compound I-14], the EC50 is ≥ 1000 nM.
As to `COc1cc(-c2nc3c(c(=O)[nH]2)=C(C)C(=O)N=3)nn1Cc1ccccc1F` [Compound I-15], the EC50 is ≥ 1000 nM.
To `COc1cc(-c2nnc3c(n2)NC(=O)C3(C)C)nn1Cc1ccccc1F` [Compound I-16] belongs 101 to 1000 nM.
With `COc1nc(-c2nc(N)c3c(n2)NC(=O)C3(C)C(N)=O)nn1Cc1ccccc1F` (centres unmarked) [Compound I-17], the EC50 was ≥ 1000 nM.
With `Cn1c(-c2nc(N)c3c(n2)NC(=O)C3(C)C(N)=O)nn(Cc2ccccc2F)c1=O` (centres unmarked) [Compound I-18], the EC50 is ≥ 1000 nM.
To `COc1cc(-c2ncc(F)c(NCc3cc(=O)[nH]o3)n2)nn1Cc1ccccc1F` [Compound I-19] belongs ≥ 1000 nM; to `COc1cc(-c2ncc(F)c(NCC(O)(C(N)=O)C(F)(F)F)n2)nn1Cc1ccccc1F` (centres unmarked) [Compound I-20], 101 to 1000 nM.
Next, `CCOC(=O)C1(C)C(=O)Nc2nc(-c3nn(Cc4ccccc4F)c(=O)[nH]3)nc(N)c21` (centres unmarked) [Compound I-21]: ≥ 1000 nM; `COc1cc(-c2ncc(F)c(N3CCCC3)n2)nn1Cc1ccccc1F` [Compound I-22]: ≥ 1000 nM; `COc1cc(-c2ncc(F)c(N3CCOCC3)n2)nn1Cc1ccccc1F` [Compound I-23]: ≥ 1000 nM.
Next, `COc1cc(-c2ncc(F)c(N3CCNCC3)n2)nn1Cc1ccccc1F` [Compound I-24]: ≥ 1000 nM; `COc1c(C#N)c(-c2nc(N)c3c(n2)NC(=O)C3(C)C(N)=O)nn1Cc1ccccc1F` (centres unmarked) [Compound I-25]: 101 to 1000 nM; `COC(=O)NC1(C)C(=O)Nc2nc(-c3cc(OC)n(Cc4ccccc4F)n3)[nH]c(=O)c21` (centres unmarked) [Compound I-26]: ≥ 1000 nM.
In the case of `COc1c(C)c(-c2nc(N)c3c(n2)NC(=O)C3(C)C(N)=O)nn1Cc1ccccc1F` (centres unmarked) [Compound I-27], the EC50 was ≥ 1000 nM.
Next, `CCOc1cc(-c2nc(N)c3c(n2)NC(=O)C3(C)C(N)=O)nn1Cc1ccccc1F` (centres unmarked) [Compound I-28]: ≥ 1000 nM; `CCOC(=O)C1(C)C(=O)Nc2nc(-c3nn(Cc4ccccc4F)c(=O)n3C)nc(N)c21` (centres unmarked) [Compound I-29]: ≥ 1000 nM; `CCOC(=O)C1(C)C(=O)Nc2nc(-c3nc(OC)n(Cc4ccccc4F)n3)nc(N)c21` (centres unmarked) [Compound I-30]: ≥ 1000 nM.
Take `COc1cc(-c2ncc(F)c(N3CCCCC3)n2)nn1Cc1ccccc1F` [Compound I-31]: the EC50 is ≥ 1000 nM.
For `COc1cc(-c2ncc(F)c(NCCCCC(=O)O)n2)nn1Cc1ccccc1F` [Compound I-32], the EC50 was 101 to 1000 nM.
Next, `COc1cc(-c2ncc(F)c(N3CCC(S(N)(=O)=O)CC3)n2)nn1Cc1ccccc1F` [Compound I-33]: ≥ 1000 nM; `CC1(C)C(=O)Nc2nc(-c3cc(OC(F)F)n(Cc4cccc(F)c4F)n3)nc(N)c21` [Compound I-34]: 101 to 1000 nM; `CCOC(=O)C1(C)C(=O)Nc2nc(-c3cc(OC)n(Cc4ccccc4F)n3)[nH]c(=O)c21` (centres unmarked) [Compound I-35]: 101 to 1000 nM.
Next, `COc1cc(-c2ncc(F)c(N3CC(C)C(C(=O)O)C3)n2)nn1Cc1ccccc1F` (centres unmarked) [Compound I-36]: ≥ 1000 nM.
To `COc1nc(-c2nc(N)c3c(n2)NC(=O)C3(C)C(=O)NC2CC2)nn1Cc1ccccc1F` (centres unmarked) [Compound I-37] belongs ≥ 1000 nM.
For the compound `Cn1c(-c2nc(N)c3c(n2)NC(=O)C3(C)C(=O)NC2CC2)nn(Cc2ccccc2F)c1=O` (centres unmarked) [Compound I-38], the EC50 was ≥ 1000 nM.
As to `CC1(C(=O)NC2CC2)C(=O)Nc2nc(-c3cc(OC(F)F)n(Cc4cccc(F)c4F)n3)ncc21` (centres unmarked) [Compound I-40], the EC50 fell in the range of 101 to 1000 nM.
To `CC1(C(N)=O)C(=O)Nc2nc(-c3cc(OC(F)F)n(CCC(F)(F)C(F)(F)F)n3)nc(N)c21` (centres unmarked) [Compound I-41] belongs ≥ 1000 nM; to `C[C@H]1CCCN(c2nc(-c3cc(OC(F)F)n(Cc4ccccc4F)n3)ncc2F)[C@H]1C(=O)O` [Compound I-42], 101 to 1000 nM; to `COc1cc(-c2nc3c(c(=O)[nH]2)C(C)(C(=O)NC2CC2)C(=O)N3)nn1Cc1ccccc1F` (centres unmarked) [Compound I-43], ≥ 1000 nM.
`CCOC(=O)C1(C)C(=O)Nc2nc(-c3nn(Cc4ccccc4F)c(OC)c3C)nc(N)c21` (centres unmarked) [Compound I-45]: the EC50 was in the range of 101 to 1000 nM.
Next, `CCOC(=O)C1(C)C(=O)Nc2nc(-c3cc(OCC)n(Cc4ccccc4F)n3)nc(N)c21` (centres unmarked) [Compound I-46]: 101 to 1000 nM.
Next, `COc1cc(-c2ncc(NC(=O)OCc3ccccc3)c(=O)[nH]2)nn1Cc1ccccc1F` [Compound I-47]: ≥ 1000 nM; `CC1(C(N)=O)C(=O)Nc2nc(-c3cc(O)n(Cc4ccccc4F)n3)nc(N)c21` (centres unmarked) [Compound I-48]: ≥ 1000 nM.
